From article PMC10471769, “Biochemical analysis of Komagataella phaffii oxidative folding proposes novel regulatory mechanisms of disulfide bond formation in yeast” (Scientific Reports, 2023)

Columns and labels:
[1] = biological target: T1, K. phaffii Ero1-Pdi1 complex (wild type) (Komagataella phaffii, UniProt F2QNN1); test: absorbance at […] nm after reflavination and size exclusion; format: binding; settings: stoichiometry, no affinity constant; 1:2 molar excess FAD+ overnight on ice, phosphate pH 7.0
T1 construct: 1:1 disulfide-linked heterodimer (Ero1 Cys136-Pdi1 Cys404); His-tagged Ero1 1-384 core without C-terminal amphipathic helix (45 kDa) plus Pdi1 (56 kDa); E. coli BL21(DE3) with customized CyDisCo; with Protein disulfide-isomerase
T1 sequence (F2QNN1 entry or part of it): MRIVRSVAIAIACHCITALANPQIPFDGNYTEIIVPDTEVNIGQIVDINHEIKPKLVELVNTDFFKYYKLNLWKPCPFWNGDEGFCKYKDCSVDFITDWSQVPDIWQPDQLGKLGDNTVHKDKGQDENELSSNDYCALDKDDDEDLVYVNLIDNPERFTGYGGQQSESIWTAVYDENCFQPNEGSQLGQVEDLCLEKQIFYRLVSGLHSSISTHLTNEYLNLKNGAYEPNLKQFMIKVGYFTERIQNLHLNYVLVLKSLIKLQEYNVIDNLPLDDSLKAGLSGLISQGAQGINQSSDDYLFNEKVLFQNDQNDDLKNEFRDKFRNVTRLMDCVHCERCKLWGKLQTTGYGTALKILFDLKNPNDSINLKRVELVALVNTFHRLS
T1 sequence (F2QY05 entry or part of it, further chain): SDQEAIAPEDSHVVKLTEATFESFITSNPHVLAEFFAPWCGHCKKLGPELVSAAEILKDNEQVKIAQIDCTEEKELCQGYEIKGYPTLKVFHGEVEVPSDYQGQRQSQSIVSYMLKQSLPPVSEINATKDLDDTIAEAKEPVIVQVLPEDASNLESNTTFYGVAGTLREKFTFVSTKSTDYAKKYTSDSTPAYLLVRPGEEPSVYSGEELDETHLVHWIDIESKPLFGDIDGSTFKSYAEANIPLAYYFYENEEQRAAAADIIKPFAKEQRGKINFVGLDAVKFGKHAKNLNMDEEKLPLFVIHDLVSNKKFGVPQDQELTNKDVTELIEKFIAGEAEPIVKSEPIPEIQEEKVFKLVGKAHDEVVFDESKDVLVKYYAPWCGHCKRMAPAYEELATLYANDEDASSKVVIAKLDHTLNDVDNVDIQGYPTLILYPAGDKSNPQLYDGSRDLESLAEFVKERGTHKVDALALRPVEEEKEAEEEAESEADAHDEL

[2] = biological target: T2, monomeric K. phaffii Ero1 (Komagataella phaffii, UniProt F2QNN1, C136A); test: as above; format: binding; settings: stoichiometry, no affinity constant; 1:2 molar excess FAD+ overnight on ice, phosphate pH 7.0
T2 construct: His-tagged 1-384 active core, C-terminal amphipathic helix removed, monomer; E. coli BL21(DE3) with CyDisCo
T2 sequence (F2QNN1 entry or part of it C136A): as the sequence (F2QNN1 entry or part of it) above, with C136A counted along it

FAD+ molecules per complex [1]: 0.93 ± 0.05 molecules per complex
FAD+ molecules per monomer [2]: 0.85 ± 0.04 molecules per monomer
Compound: Cc1cc2nc3c(=O)[nH]c(=O)nc-3n(C[C@H](O)[C@H](O)[C@H](O)COP(=O)(O)OP(=O)(O)OC[C@H]3O[C@@H](n4cnc5c(N)ncnc54)[C@H](O)[C@@H]3O)c2cc1C [FAD+]
